Measurements taken from ChEMBL document CHEMBL1140624, “Improved biochemical strategies for targeted delivery of taxoids” (Bioorg Med Chem, 2007).
Values after ≈ are worked out from the molar mass of the structure shown. Blank lines part the entries; values can stand above or below the compound they belong to. Active and inactive are the calls of the source. The rule behind the calls is not given here.

Key:
[1] = Aqueous solubility of the compound; format: physicochemical; details: aqueous solution
[2] = Half life in PBS buffer assessed as taxol circulation time at pH 7; format: ADME
MCF7 [3] = assay: Cytotoxicity against human MCF7 cells; format: functional, cell-based
EVSA-T = assay: Cytotoxicity against human EVSA-T cells; format: functional, cell-based
[4] = Half life in DTT buffer assessed as taxol release; format: ADME
L2987 [5] = assay: Cytotoxicity against human L2987 cells; format: functional, cell-based
L2987 [6] = assay: Cytotoxicity against human L2987 cells in presence of DTT; format: functional, cell-based
Mus musculus [7] = organism: Mus musculus; assay: Toxicity assessed as reduction of body weight in mouse; format: organism-based; details: in vivo
MDA-MB-231 = assay: Cytotoxicity against ERalpha negative human MDA-MB-231 cells; format: functional, cell-based
MCF7 [8] = assay: Cytotoxicity against ERalpha positive human MCF7 cells; format: functional, cell-based; details: for EC50: read-out: ED50 (the source's name)
PC-3 = assay: Cytotoxicity against ERbeta positive human PC3 cells; format: functional, cell-based
A2780 = assay: Cytotoxicity against ERbeta negative human A2780 cells; format: functional, cell-based
MCF-7 (Homo sapiens) = assay: Ratio of IC50 for ERalpha positive human MCF-7 cells to IC50 for ERalpha negative human MDA-MB-231 cells
[9] = Half life in presence of 50 ug/mL beta-glucuronidase assessed as taxol release; format: ADME
Mus musculus [10] = assay: Reduction of body weight in human L2987 xenografted athymic mouse at 125 mg/kg; format: functional; set-up: scale not given: the % may be the effect or the level left
[11] = Half life in presence of 30 ug/mL beta-glucuronidase assessed as taxol release at 30 ug/mL; format: ADME
LoVo [12] = assay: Cytotoxicity against human LoVo cells in presence of beta-glucuronidase; format: functional, cell-based
LoVo [13] = assay: Ratio of IC50 of drug for human LoVo cells to IC50 of taxotere for human LoVo cells; format: functional
Mus musculus [14] = organism: Mus musculus; assay: Survival of p388 tumor bearing mouse after 30 days; format: functional, organism-based
OVCAR-3 [15] = assay: Cytotoxicity against human OVCAR-3 cells; format: functional, cell-based
[16] = Cytotoxicity against human IGROV cells; format: functional, cell-based
OVCAR-3 [17] = assay: Cytotoxicity against human OVCAR-3 cells in presence of beta-glucuronidase; format: functional, cell-based
HT-29 = assay: Cytotoxicity against human HT29 cells; format: functional, cell-based
[18] = tested on: M19 melanoma cell line (human); assay: Cytotoxicity against human M19 melanoma cells
[19] = Half life at pH 7; format: ADME; details: buffer
[20] = Half life at pH 5; format: ADME; details: buffer

SMILES: CC(=O)O[C@H]1C(=O)[C@@]2(C)[C@H]([C@H](OC(=O)c3ccccc3)[C@]3(O)C[C@H](OC(=O)[C@H](OC(=O)C(C)(C)CCSS[C@@H]4C[C@H](CO)[C@@H](O)[C@H](O)[C@H]4O)[C@@H](NC(=O)c4ccccc4)c4ccccc4)C(C)=C1C3(C)C)[C@]1(OC(C)=O)CO[C@@H]1C[C@@H]2O
- t1/2 [4]: 12 min
- IC50 (L2987 [5]): 5700 nM
- IC50 (L2987 [6]): 200 nM

SMILES: CC(=O)O[C@H]1C(=O)[C@@]2(C)[C@H]([C@H](OC(=O)c3ccccc3)[C@]3(O)C[C@H](OC(=O)[C@H](OC(=O)CN(C)CC(=O)NCCOCCOCCOCCNC(=O)CCC(NC(=O)c4ccc(NCc5cnc6nc(N)[nH]c(=O)c6n5)cc4)C(=O)O)[C@@H](NC(=O)c4ccccc4)c4ccccc4)C(C)=C1C3(C)C)[C@]1(OC(C)=O)CO[C@@H]1C[C@@H]2O (stereo not given in full)
- Activity (Mus musculus [7]): Non-toxic

SMILES: CC(=O)O[C@H]1C(=O)[C@@]2(C)[C@H]([C@H](OC(=O)c3ccccc3)[C@]3(O)C[C@H](OC(=O)[C@@H](OC(=O)CCC(=O)O[C@@H]4C[C@]5(C)[C@@H](O)CC[C@H]5[C@@H]5CCc6cc(O)ccc6[C@H]54)[C@@H](NC(=O)c4ccccc4)c4ccccc4)C(C)=C1C3(C)C)[C@]1(OC(C)=O)CO[C@@H]1C[C@@H]2O
- IC50 (MDA-MB-231): 304 nM
- IC50 (MCF7 [8]): 103 nM
- IC50 (PC-3): 68 nM
- IC50 (A2780): 1900 nM
- Ratio IC50 (MCF-7 (Homo sapiens)): 3

SMILES: CC(=O)O[C@H]1C(=O)[C@@]2(C)[C@H]([C@H](OC(=O)c3ccccc3)[C@]3(O)C[C@H](OC(=O)[C@H](OC(=O)N(C)CCN(C)C(=O)OCc4ccc(O[C@@H]5O[C@H](C(=O)O)[C@@H](O)[C@H](O)[C@H]5O)c([N+](=O)[O-])c4)[C@@H](NC(=O)OC(C)(C)C)c4ccccc4)C(C)=C1C3(C)C)[C@]1(OC(C)=O)CO[C@@H]1C[C@@H]2O
- t1/2 [11]: 10 min
- Activity (LoVo [12]): inactive
- Ratio IC50 (LoVo [13]): 337

SMILES: CC(=O)O[C@H]1C(=O)[C@@]2(C)[C@H]([C@H](OC(=O)c3ccccc3)[C@]3(O)C[C@H](OC(=O)[C@H](O)[C@@H](NC(=O)c4ccccc4)c4ccccc4)C(C)=C1C3(C)C)[C@]1(OC(C)=O)CO[C@@H]1C[C@@H]2O [PACLITAXEL]
- Activity (Mus musculus [14]): Toxic
- IC50 (MDA-MB-231): 4.5 nM
- EC50 (MCF7 [8]): 50 ng/mL (≈ 0.0586 µM)
- solubility [1]: 10 µg/mL (≈ 11.7 µM)
- IC50 (PC-3): 77 nM
- IC50 (A2780): 25 nM
- IC50 (OVCAR-3 [15]): 0.2 nM
- IC50 [16]: 10 ng/mL (≈ 0.0117 µM)
- Activity (OVCAR-3 [17]): inactive
- IC50 (LoVo [12]): 90 nM
- IC50 (HT-29): 30 ng/mL (≈ 0.0351 µM)
- IC50 [18]: < 3 ng/mL

The next lines start with results.

- solubility [1]: 200 µg/mL (≈ 206 µM)
- t1/2 [2]: > 1440 min
SMILES: CC(=O)O[C@H]1C(=O)[C@@]2(C)[C@H]([C@H](OC(=O)c3ccccc3)[C@]3(O)C[C@H](OC(=O)[C@H](OC(=O)C[C@H](O)C(=O)O)[C@@H](NC(=O)c4ccccc4)c4ccccc4)C(C)=C1C3(C)C)[C@]1(OC(C)=O)CO[C@@H]1C[C@@H]2O
- IC50 (MCF7 [3]): < 3 ng/mL
- IC50 (EVSA-T): < 3 ng/mL

- t1/2 [9]: 13 min
SMILES: CC(=O)O[C@H]1C(=O)[C@@]2(C)[C@H]([C@H](OC(=O)c3ccccc3)[C@]3(O)C[C@H](OC(=O)[C@H](OC(=O)N(C)CCN(C)C(=O)OCc4ccc(O)c(N)c4)[C@@H](NC(=O)c4ccccc4)c4ccccc4)C(C)=C1C3(C)C)[C@]1(OC(C)=O)CO[C@@H]1C[C@@H]2O

- t1/2 [4]: 25 min
SMILES: CC(=O)O[C@H]1C(=O)[C@@]2(C)[C@H]([C@H](OC(=O)c3ccccc3)[C@]3(O)C[C@H](OC(=O)[C@H](OC(=O)C(C)(C)CCSSC[C@H](C)C(=O)N4CCC[C@@H]4C(=O)O)[C@@H](NC(=O)c4ccccc4)c4ccccc4)C(C)=C1C3(C)C)[C@]1(OC(C)=O)CO[C@@H]1C[C@@H]2O
- Activity (Mus musculus [10]): 10%

- half-life [19]: 40 h
- half-life [20]: > 12.5 days
SMILES: CC(=O)O[C@H]1C(=O)[C@@]2(C)[C@H]([C@H](OC(=O)c3ccccc3)[C@]3(O)C[C@H](OC(=O)[C@H](OC(=O)COCC(=O)NCCOCCOCCOCCNC(=O)CCC(NC(=O)c4ccc(NCc5cnc6nc(N)[nH]c(=O)c6n5)cc4)C(=O)O)[C@@H](NC(=O)c4ccccc4)c4ccccc4)C(C)=C1C3(C)C)[C@]1(OC(C)=O)CO[C@@H]1C[C@@H]2O (stereo not given in full)
- EC50 (MCF7 [8]): 3.3 ng/mL (≈ 0.00211 µM)
- EC50 (HT-29; read-out: ED50 (the source's name)): 2.9 ng/mL (≈ 0.00185 µM)
